According to PMC6010121, “Structural re-positioning, in silico molecular modelling, oxidative degradation, and biological screening of linagliptin as adenosine 3 receptor (ADORA3) modulators targeting hepatocellular carcinoma” (Journal of Enzyme Inhibition and Medicinal Chemistry, 2018):

Target: T1, adenosine 3 receptor (ADORA3) (Homo sapiens, UniProt P0DMS8)
T1 construct: recombinant human ADORA3 (Abcam)
T1 sequence (P0DMS8 1-318): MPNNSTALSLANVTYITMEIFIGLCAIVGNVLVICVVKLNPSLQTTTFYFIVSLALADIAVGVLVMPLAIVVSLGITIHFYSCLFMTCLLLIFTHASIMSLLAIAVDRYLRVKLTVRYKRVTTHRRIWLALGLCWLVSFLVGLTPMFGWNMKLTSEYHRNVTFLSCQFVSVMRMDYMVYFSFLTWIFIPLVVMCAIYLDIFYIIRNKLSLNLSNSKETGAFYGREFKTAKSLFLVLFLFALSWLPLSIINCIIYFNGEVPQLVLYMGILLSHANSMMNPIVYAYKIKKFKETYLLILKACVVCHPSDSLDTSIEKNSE
Experiment: ELISA-based binding inhibition with recombinant human ADORA3 on anti-ADORA3 antibody-coated wells; Ki calculated from IC50 ([…])

CC#CCn1c(N2CCC[C@@H](N)C2)nc2c1c(=O)n(Cc1nc(C)c3ccccc3n1)c(=O)n2C [LIN, linagliptin]
Ki: 37.7 nM
